Experiments:
[1] = Tolerability in MMTV-HER2 female mice; format: in vivo, mouse
Procedure: Mice, tumor growth, and tissue processing: The FVB/N-Tg (MMTVneu) mouse strain was obtained from Jackson Laboratories (Sacramento, Calif.). […] Before being used in any experiment, females underwent one round of pregnancy and at least two weeks of no lactation after weaning. Females between 24-32 weeks of age were injected intraperitoneally with vehicle (90% corn oil, 10% ethanol) or LY4 (50 mpk) daily, for two weeks. For the combination treatment, females 24-32 weeks of age were treated daily by oral gavage with Abemaciclib (50 mpk) for 4 weeks before starting the treatment described earlier with LY4. Tumor volumes were measured using the formula (Dxd^2)/2, where D is the longest and d is the shortest diameter. For CTC count, animals were anesthetized and whole blood was extracted by cardiac puncture. Mammary glands, lungs, and tumors were collected and fixed in 10% buffered formalin overnight before paraffin embedding. The bone marrow from the two lower limbs was flushed with a 26 G needle and further processed by Ficoll density gradient centrifugation. For CTC as well as for DTC detection in bone marrow, tissues were depleted of mature hematopoietic cells by anti-mouse antibody-labeled magnetic bead separation (Miltenyi Biotec, San Diego, Calif.) before fixation in formalin for 20 minutes at 4° C.

ZR75.1 HER2^+ cells = assay: 3D Matrigel culture of ZR75.1-H2B-Dendra2 cells at low or high density, live cells; format: cell-based, human; conditions: 2 μM, day 2 to day 8, 3D Matrigel
Procedure: Reagents, cell culture, and treatments: EGF was obtained from PeproTech (Rocky Hill, N.J.) and used at 100 ng/ml. Thapsigargin was from Sigma (St. Louis, Mo.) and used at 2 nM. The ZR75.1-H2B-Dendra2 cell line was generated by stable transfection of the H2B-Dendra2 plasmid (Gurskaya et al., “Engineering of a Monomeric Green-to-Red Photoactivatable Fluorescent Protein Induced by Blue Light,” Nat. Biotechnol. 24:461-465 (2006), which is hereby incorporated by reference in its entirety). For 3D cultures, MCF10A-HER2, SKBR3, and ZR75.1-H2B-Dendra2 cells were plated in growth factor-reduced Matrigel (Corning, Corning, N.Y.) and grown as described previously (Avivar-Valderas et al., “Regulation of Autophagy during ECM Detachment is Linked to a Selective Inhibition of mTORC1 by PERK,” Oncogene 32(41):4932-40 (2013), which is hereby incorporated by reference in its entirety). When referring to “low density,” 3,500 cells/8-well were seeded, and for “high density” 20,000 cells/8-well. Treatments with vehicle (DMSO) or LY4 (2 μM) were replaced every 24 hours for 2D and every 48 hours for 3D cultures.

With Cc1cc(NC(=O)[C@H](O)c2cc(F)cc(F)c2)ccc1-c1cnc(N)c(C(=O)NC(C)C)c1 [LY4, 2-amino-5-[4-[[(2R)-2-(3,5-difluorophenyl)-2-hydroxy-acetyl]amino]-2-methyl-phenyl]-N-isopropyl-pyridine-3-carboxamide] the “bone marrow cell homeostasis and peripheral blood white cells (total cell counts)” value ([1]; 50 mpk i.p. daily, two weeks) was “no effect on total cell counts”, the “tolerability, body weight” value ([1]; 50 mpk i.p. daily, two weeks) was “well tolerated, with no significant changes in body weight” and the “glucose levels, blood cell counts, drinking and feeding behavior” value ([1]; doses of LY4 used, non-tumor or cancer bearing mice) was “did not significantly affect glucose levels, bone marrow, or peripheral blood cell counts, drinking and feeding behavior”. For the same compound, the “survival of quiescent single cells (low density)” value (ZR75.1 HER2^+ cells) was “eradicated the quiescent single ZR75.1 HER2^+ cells” and the “viability of cells seeded at high density” value (ZR75.1 HER2^+ cells) was “no significant effect on the viability”.

Reference: US20210121527A1, “METHODS OF TREATING MINIMAL RESIDUAL CANCER” (ICAHN SCHOOL OF MEDICINE AT MOUNT SINAI, priority 2018, published 2021)
